Drawing on the Kinase Knowledgebase extract (Sharma et al. 2016), this text covers IC50 for 30 compounds.

What is called IC50 is the midpoint of a concentration-inhibition curve. Low values mean greater potency in that assay, high ones weaker potency in that assay.

Structures are written as SMILES.

PIK3CD (Human), sequence (O00329 whole entry, looked up): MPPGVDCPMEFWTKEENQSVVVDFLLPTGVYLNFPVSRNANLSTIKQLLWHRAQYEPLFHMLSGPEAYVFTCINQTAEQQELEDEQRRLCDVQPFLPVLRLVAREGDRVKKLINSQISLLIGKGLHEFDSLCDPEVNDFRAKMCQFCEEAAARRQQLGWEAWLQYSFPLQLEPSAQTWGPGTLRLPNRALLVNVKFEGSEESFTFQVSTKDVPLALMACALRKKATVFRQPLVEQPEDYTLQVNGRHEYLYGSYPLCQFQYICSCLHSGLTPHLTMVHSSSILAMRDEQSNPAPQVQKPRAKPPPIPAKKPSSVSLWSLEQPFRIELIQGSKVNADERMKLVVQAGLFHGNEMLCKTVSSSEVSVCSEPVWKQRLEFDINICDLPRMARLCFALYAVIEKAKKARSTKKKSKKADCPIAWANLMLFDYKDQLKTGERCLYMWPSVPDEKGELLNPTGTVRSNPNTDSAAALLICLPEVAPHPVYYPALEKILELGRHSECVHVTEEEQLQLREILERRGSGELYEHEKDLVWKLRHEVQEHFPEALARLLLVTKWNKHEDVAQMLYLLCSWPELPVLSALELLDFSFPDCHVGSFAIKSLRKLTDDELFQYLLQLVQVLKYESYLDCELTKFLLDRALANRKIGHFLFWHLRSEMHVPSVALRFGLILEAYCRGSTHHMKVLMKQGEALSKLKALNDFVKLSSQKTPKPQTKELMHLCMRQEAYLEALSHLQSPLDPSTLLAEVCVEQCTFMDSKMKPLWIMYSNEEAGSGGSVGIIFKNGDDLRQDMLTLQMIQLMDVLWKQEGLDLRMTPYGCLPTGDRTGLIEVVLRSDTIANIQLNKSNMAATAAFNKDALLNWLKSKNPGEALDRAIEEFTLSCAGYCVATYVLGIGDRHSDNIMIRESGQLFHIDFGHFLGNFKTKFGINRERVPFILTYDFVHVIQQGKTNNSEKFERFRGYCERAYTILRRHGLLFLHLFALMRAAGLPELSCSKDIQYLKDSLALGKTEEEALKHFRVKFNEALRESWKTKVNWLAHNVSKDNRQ

The assay concerns the target PIK3CD (Human) (UniProt O00329). Nature of the assay: Enzyme Assay.
`CCn1c(-c2cnc(C)nc2)nc2c(O[C@H]3CCN(C(=O)N4CCC4)C3)ncnc21`: the IC50 stood at 1.3 nM.

Compound `CCn1ncc(-c2nc3c(O[C@H]4CCN(c5nccn6cnnc56)C4)ncnc3n2C)c1C` displayed an IC50 of 30 nM.

`CCn1ncc(-c2nc3c(S[C@H]4CCN(c5ncnc6sccc56)C4)ncnc3n2C)c1C` had an IC50 of 5.5 nM.

Compound `CCC(=O)N1CC[C@H](Oc2ncnc3c2nc(-c2cnn4c2CCCC4)n3C)C1` registered an IC50 of 2.4 nM.

Turning to `CCn1c(-c2cnc(C)nc2)nc2c(O[C@H]3CCN(C(=O)[C@H]4CC5CCN4C5)C3)ncnc21` (stereo not given in full), the IC50 was found to be 88 nM.

In turn, `CCC(=O)N1CC[C@H](Oc2ncnc3c2nc(-c2cnn(C(C)(C)C)c2)n3C)C1` yielded an IC50 of 4.7 nM.

As to `COC1CC(c2nc3c(O[C@H]4CCN(C(=O)OC(C)(C)C)C4)ncnc3n2C)C1` (stereo not given in full), the IC50 was found to be 2100 nM.

For `CCn1ncc(-c2nc3c(OC4CC(C)N(C(=O)OC(C)(C)C)C4)ncnc3n2C)c1C` (stereo not given), the IC50 came to 1300 nM.

Turning to `CCN(C)C(=O)N1CC[C@H](Oc2ncnc3c2nc(-c2cnc(C)nc2)n3CC)C1`, the IC50 was found to be 10 nM.

`CCn1ncc(-c2nc3c(O[C@H]4CCN(c5cncc(C)n5)C4)ncnc3n2C)c1C` displayed an IC50 of 26 nM.

For `CCn1c(C(=O)NCC(F)(F)F)nc2c(O[C@H]3CCN(C(=O)OC(C)(C)C)C3)ncnc21`, the IC50 came to 31 nM.

`CCn1ncc(-c2nc3c(O[C@H]4CCCN(C(=O)OC(C)(C)C)C4)ncnc3n2C)c1C` gave an IC50 of 94 nM.

The compound `CCn1c(-c2cnc(OC)c(C#N)c2)nc2c(O[C@H]3CCN(C(=O)C4CC4)C3)ncnc21` had an IC50 of 2.4 nM.

In turn, `CCC(=O)N1CCC(Cc2ncnc3c2nc(-c2cnn(CC)c2C)n3C)C1` (stereo not given) showed an IC50 of 250 nM.

`CCn1c(-c2cnc(C)nc2)nc2c(O[C@H]3CCN(C(=O)c4ccn(C)n4)C3)ncnc21` returned an IC50 of 3 nM.

In the case of `CCn1c(-c2cnc(OC)nc2)nc2c(O[C@H]3CCN(C(=O)C4CC4)C3)ncnc21`, the IC50 turned out to be 6.3 nM.

On to `CCOC(=O)N1CC[C@H](Oc2ncnc3c2nc(-c2cnc(C)nc2)n3CC)C1`, for which the IC50 turned out to be 18 nM.

The compound `CCn1ncc(-c2nc3c(O[C@H]4CCN(C(=O)c5c[nH]nn5)C4)ncnc3n2C)c1C` came in with an IC50 of 12 nM.

`CCn1c(-c2ccnc(OC)c2)nc2c(O[C@H]3CCN(C(=O)C4CC4)C3)ncnc21` displayed an IC50 of 20 nM.

In turn, `CCn1c(-c2cnc(C)nc2)nc2c(O[C@H]3CCN(C(=O)C4[C@@H](C)[C@H]4C)C3)ncnc21` (stereo not given in full) registered an IC50 of 12 nM.

Turning to `CCc1oncc1C(=O)N1CC[C@H](Oc2ncnc3c2nc(-c2cnn(CC)c2C)n3C)C1`, the IC50 is 27 nM.

In the case of `CCC(=O)N[C@H]1CC[C@H](Oc2ncnc3c2nc(-c2cnc(C)nc2)n3CC)CC1`, the IC50 was 330 nM.

For `Cn1c(-c2ccc(N3CCCC3)nc2)nc2c(O[C@H]3CCN(C(=O)OC(C)(C)C)C3)ncnc21`, the IC50 amounted to 590 nM.

`CCn1ncc(-c2nc3c(O[C@H]4CCN(C(=O)c5cncn5C)C4)ncnc3n2C)c1C` returned an IC50 of 5.4 nM.

On to `CCn1c(-c2cnc(C)nc2)nc2c(O[C@H]3CCN(C(=O)OCCCN(C)C)C3)ncnc21`, for which the IC50 was 37 nM.

`CCn1ncc(-c2nc3c(S(=O)(=O)[C@H]4CCN(C(=O)C5CCOCC5)C4)ncnc3n2C)c1C`: the IC50 was determined as 960 nM.

In the case of `CCn1c(-c2cnc(C)nc2)nc2c(OC3(C)CCN(C(=O)C4CC4)C3)ncnc21` (stereo not given), the concentration for half-maximal inhibition (IC50) was 8.7 nM.

`CCn1c(-c2cnc(C)nc2)nc2c(O[C@H]3CCN(C(=O)[C@@H]4CCC[C@H]4N)C3)ncnc21`: the IC50 came out at 39 nM.

Take `Cn1cnc2c(O[C@H]3CCN(C(=O)OC(C)(C)C)C3)ncnc21`: the half-maximal inhibitory concentration (IC50) is 1400 nM.

As to `CCn1c(-c2cnc(C)nc2)nc2c(O[C@H]3CCN(C(=O)[C@H]4C[C@H]5CC[C@@H]4C5)C3)ncnc21`, the concentration for half-maximal inhibition (IC50) is 1.2 nM.
